Source: US20050065212A1, “Use of at least one 10-hydroxy-2-decenoic acid derivative in compositions for treating the cuteous signs of aging” (priority 2001, published 2005)

Key:
[1] = tested on: interstitial collagenase (type-1 metalloprotease, MMP-1) production by HT1080 cells; test: Production of interstitial collagenase in HT1080 cell culture (ELISA, Biotrack human MMP1); format: cell-based; settings: for percentage of reduction of the production of interstitial collagenase relative to the control: compound 25 μg/ml, culture medium 96 hours after contact
Method: (§1) The effect of 2-dimethylaminoethyl 10-hydroxy-2-decenoate on the production of interstitial collagenase was evaluated in a culture model of A2058 cells (derived from human melanomas: Templeton N. S. et al. 1990; Cancer Res., 50:5431-5431) and in a culture model of HT1080 cells derived from a human fibrosarcoma (American type Culture Collection: reference CCL 121).
(§2) The A2058 cells constitutively express and secrete type-1 metalloprotease. The HT1080 cells express little type-1 metalloprotease in the basal state, but this expression is increased in the presence of TPA.
(§3) The cells are incubated in an MEM medium without phenol red, containing amino acids at a concentration of 2 mM, sodium pyruvate at a concentration of 1 mM and calf serum containing 10% […]. They are then cultured at a density of 20 000 cells per well in the 24 wells of a multiwell plate.
(§4) Twenty-four hours after culturing, the cells are placed in contact with 2-dimethylaminoethyl 10-hydroxy-2-decenoate at a concentration of 25 μg/ml. The production of the interstitial collagenase is evaluated 96 hours later in the culture medium. This is performed using an ELISA kit (Biotrack human MMP1; Amersham).
(§5) The results are expressed as a percentage of reduction of the production of interstitial collagenase relative to the control, i.e. relative to culturing performed under the same conditions in the absence of derivative.

[2] = tested on: interstitial collagenase (type-1 metalloprotease, MMP-1) production by A2058 cells; test: Production of interstitial collagenase in A2058 cell culture (ELISA, Biotrack human MMP1); format: cell-based
Method: as §1, §2, §3, §4, §5

CN(C)CCOC(=O)/C=C/CCCCCCCO [2-dimethylaminoethyl 10-hydroxy-2-decenoate]
percentage of reduction of the production of interstitial collagenase relative to the control ([1]; HT1080 with TPA): 50% | percentage of reduction of the production of interstitial collagenase relative to the control ([1]; HT1080 without TPA): 55% | effect on production of interstitial collagenase (in words) ([1]; HT61080 cells as printed, dose of 25 μg/ml): reduces the production of interstitial collagenase | percentage of reduction of the production of interstitial collagenase relative to the control ([2]; A2058 cells, compound 25 μg/ml, culture medium 96 hours after contact): 70% | effect on production of interstitial collagenase (in words) ([2]; A 2058 cells, dose of 25 μg/ml): reduces the production of interstitial collagenase
